Measurements: patent US20240254066A1, “RESCORCINOLS, METHODS FOR THEIR MANUFACTURE, AND USES THEREOF” (GW Research Limited, priority 2021, published 2024)

Test system: tonic hind limb extensor convulsions (mouse model of generalised seizure)
Test: mini-MEST (maximal electroshock seizure threshold) test in the mouse
Details: for change in vivo at 5 mg/kg / change in vivo at 50 mg/kg: Mus musculus, ip, change in CC50; for change in vivo at 5 mg/kg: 0.25 h, read-out: % change from vehicle, 5 mg/kg i.p., 15 min post dose; for change in vivo at 50 mg/kg: 0.5 h, read-out: % change from vehicle, 50 mg/kg i.p., 30 min post dose
Protocol: The efficacy of novel resorcinols 2, 3, 5, 8, 10, 15, 16, 17, 18, 19, 41 45, 46, 53, 56 and 58 were tested in a novel mouse model of generalised seizure, the mini-MEST (maximal electroshock seizure threshold) test, which uses lower n numbers than typically used.
The maximal electroshock seizure threshold (MEST) test is widely utilized preclinically to evaluate pro- or anti-convulsant properties of test compounds (Loscher et al., 1991).
In the MEST test the ability of a drug to alter the seizure threshold current required to induce hind limb tonic extensor convulsions is measured according to an “up and down” method of shock titration (Kimball et al., 1957). An increase in seizure threshold is indicative of anti-convulsant effect.
The ability of a test compound to alter the stimulus intensity, expressed as current (mA), required to induce the presence of tonic hind limb extensor convulsions, is assessed in the MEST.
Naïve mice were acclimatised to the procedure room in their home cages for up to 7 days, with food and water available ad libitum.
All animals were weighed at the beginning of the study and randomly assigned to treatment groups based on a mean distribution of body weight across groups.
The first animal within a treatment group was given a shock at the expected or estimated CC50 current. For subsequent animals, the current was lowered or raised depending on the convulsions outcome from the preceding animal in log scale intervals.
Data generated from each treatment group were used to calculate the CC50±SEM values for the treatment group.
Vehicle: (5% ethanol, 10% solutol in 85% Saline) was prepared as follows: 1 mL of ethanol, 2 mL of solutol were warmed to 60° C., in 17 mL of saline (1:2:17).
The test compounds used were 2, 3, 5, 8, 10, 15, 16, 17, 18, 19, 41, 45, 46, 53, 56 and 58 Test compounds were administered at 5-50 mg/kg (i.p.) in a 1:2:17 ethanol:solutol:saline formulation.
Test compound effects were also calculated as percentage change in CC50 from the vehicle control group.
Significant difference between drug-treated animals and controls were assessed according to Litchfield and Wilcoxon (1949).

[1] = 5 mg/kg i.p., test 15 min post dose
[2] = 50 mg/kg i.p., test 30 min post dose

Compound | CC50 +/− SEM [1] | CC50 +/− SEM [2] | change in vivo at 5 mg/kg | change in vivo at 50 mg/kg
C=C(C)[C@@H]1C[C@H](O)C(C)=C[C@H]1c1c(O)cc(Cl)cc1O [Compound 2, (1′R,2′R,4′S)-4-Chloro-5′-methyl-2′-(prop-1-en-2-yl)-1′,2′,3′,4′-tetrahydro-[1,1′-biphenyl]-2,4′,6-triol] | 28.3 ± 1.1 mA | >114 mA | 7% | > 330%
C=C(C)[C@@H]1C[C@H](O)C(C)=C[C@H]1c1c(O)cc(CC)cc1O [Compound 3, (1″R,2′R,4′S)-4-Ethyl-5′-methyl-2″-(prop-1-en-2-yl)-1′,2″,3″,4′-tetrahydro-[1,1″-biphenyl]-2,4′,6-triol] | 44.2 +/− 1.4 mA | 59.2 +/− 1.4 mA | 77% | 137%
C=C(C)[C@@H]1C[C@H](O)C(C)=C[C@H]1c1c(O)cc(CCOC)cc1O [Compound 5, (1′R,2′R,4′S)-4-(2-Methoxyethyl)-5′-methyl-2′-(prop-1-en-2-yl)-1″,2′,3′,4′-tetrahydro-[1,1′-biphenyl]-2,4′,6-triol] | 23.5 +/− 0.3 mA | 50.5 +/− 0.7 mA | 0% | 115%
C=C(C)[C@@H]1C[C@H](O)C(C)=C[C@H]1c1c(O)cc(/C=C/C)cc1O [Compound 7, (1′R,2′R,4′S)-5′-Methyl-4-((E)-prop-1-en-1-yl)-2′-(prop-1-en-2-yl)-1′,2′,3′,4′-tetrahydro-[1,1′-biphenyl]-2,4′,6-triol] | 29.0 ± 1.5 mA | 75.0 ± 3.4 mA | -2% | 153%
C=C(C)[C@@H]1C[C@H](O)C(C)=C[C@H]1c1c(O)cc(C2CC2)cc1O [Compound 8, (1′R,2′R,4′S)-4-Cyclopropyl-5′-methyl-2′-(prop-1-en-2-yl)-1′,2′,3′,4′-tetrahydro-[1,1′-biphenyl]-2,4″,6-triol] | 24.5 ± 0.9 mA | 58.2 ± 2.0 mA | 9% | 159%
C=C(C)[C@@H]1C[C@H](O)C(C)=C[C@H]1c1c(O)cc(C2=CCCC2)cc1O [Compound 9, (1′R,2′R,4′S)-4-(Cyclopent-1-en-1-yl)-5′-methyl-2′-(prop-1-en-2-yl)-1′,2′,3′,4′-tetrahydro-[1,1′-biphenyl]-2,4′,6-triol] |  | >131.0 mA |  | > 344%
C=C(C)[C@@H]1C[C@H](O)C(C)=C[C@H]1c1c(O)cc(-c2cnn(C)c2)cc1O [Compound 10, (1′R,2′R,4′S)-5′-Methyl-4-(1-methyl-1H-pyrazol-4-yl)-2′-(prop-1-en-2-yl)-1′,2″,3′,4′-tetrahydro-[1,1′-biphenyl]-2,4′,6-triol] | 28.3 +/− 1.1 mA | 31.0 +/− 0.2 mA | 21% | 32%
C=C(C)[C@@H]1C[C@H](O)C(C)=C[C@H]1c1c(O)cc(-c2cccc(OC)c2)cc1O [Compound 15, (1R,2R,4S)-3″-Methoxy-5-methyl-2-(prop-1-en-2-yl)-1,2,3,4-tetrahydro-[1,1′:4′,1″-terphenyl]-2′,4,6′-triol] |  | >114 mA |  | > 407%
C=C(C)[C@@H]1C[C@H](O)C(C)=C[C@H]1c1c(O)cc(-c2ccnc(OC)c2)cc1O [Compound 16, (1′R,2′R,4′S)-4-(2-Methoxypyridin-4-yl)-5′-methyl-2′-(prop-1-en-2-yl)-1″,2′,3′,4′-tetrahydro-[1,1′-biphenyl]-2,4′,6-triol] |  | 70.5 +/− 1.3 mA |  | 213%
C=C(C)[C@@H]1C[C@H](O)C(C)=C[C@H]1c1c(O)cc(-c2ccc(OC)nc2)cc1O [Compound 17, (1′R,2′R,4′S)-4-(6-Methoxypyridin-3-yl)-5′-methyl-2′-(prop-1-en-2-yl)-1′,2′,3′,4′-tetrahydro-[1,1′-biphenyl]-2,4′,6-triol] | 39.0 +/− 0.2 mA | >114 mA | 66% | > 385%
C=C(C)[C@@H]1C[C@H](O)C(C)=C[C@H]1c1c(O)cc(-c2ccc(F)cc2)cc1O [Compound 18, (1R,2R,4S)-4″-fluoro-5-methyl-2-(prop-1-en-2-yl)-1,2,3,4-tetrahydro-[1,1′:4′,1″-terphenyl]-2′,4,6′-triol] | 31.0 ± 4.5 mA | 61.5 ± 1.3 mA | 38% | 178%
C=C(C)[C@@H]1C[C@H](O)C(C)=C[C@H]1c1c(O)cc(-c2ccc(OC(F)F)nc2)cc1O [Compound 19, (1′R,2′R,4′S)-4-(6-(Difluoromethoxy)pyridin-3-yl)-5′-methyl-2′-(prop-1-en-2-yl)-1′,2″,3′,4′-tetrahydro-[1,1′-biphenyl]-2,4′,6-triol] | 38.0 ± 1.9 mA | 97.5 ± 1.3 mA | 43% | 268%
C=C(C)[C@@H]1C[C@H](O)C(C)=C[C@H]1c1c(O)cc(C2=CCOCC2)cc1O [Compound 26, (1′R,2′R,4′S)-4-(3,6-Dihydro-2H-pyran-4-yl)-5′-methyl-2′-(prop-1-en-2-yl)-1′,2″,3′,4′-tetrahydro-[1,1′-biphenyl]-2,4′,6-triol] | 31.0 ± 0.2 mA | 50.0 ± 2.6 mA | 24% | 100%
C=C(C)[C@@H]1C[C@H](O)C(C)=C[C@H]1c1c(O)cc(-c2ccccc2OC)cc1O [Compound 29, (1R,2R,4S)-2″-Methoxy-5-methyl-2-(prop-1-en-2-yl)-1,2,3,4-tetrahydro-[1,1′:4′,1″-terphenyl]-2″,4,6′-triol] | 35.0 ± 2.6 mA | 70.5 ± 1.3 mA | 32% | 166%
C=C(C)[C@@H]1C[C@H](O)C(C)=C[C@H]1c1c(O)cc(-c2ccc(F)c(OC)c2)cc1O [Compound 30, (1R,2R,4S)-4″-Fluoro-3″-methoxy-5-methyl-2-(prop-1-en-2-yl)-1,2,3,4-tetrahydro-[1,1′:4′,1″-terphenyl]-2′,4,6′-triol] | 43.0 ± 1.9 mA | >131 mA | 62% | > 394%
C=C(C)[C@@H]1C[C@H](O)C(C)=C[C@H]1c1c(O)cc(-c2cccc(OC(F)F)c2)cc1O [Compound 31, (1R,2R,4S)-3″-(Difluoromethoxy)-5-methyl-2-(prop-1-en-2-yl)-1,2,3,4-tetrahydro-[1,1′:4′,1″-terphenyl]-2′,4,6′-triol] | 33.0 ± 1.5 mA | 79.5 ± 1.3 mA | 25% | 200%
C=C(C)[C@@H]1C[C@H](O)C(C)=C[C@H]1c1c(O)cc(-c2ccc(OC)cc2)cc1O [Compound 33, (1R,2R,4S)-4″-Methoxy-5-methyl-2-(prop-1-en-2-yl)-1,2,3,4-tetrahydro-[1,1′:4′,1″-terphenyl]-2′,4,6′-triol] | 38.8 ± 1.4 mA | 79.5 ± 0.9 mA | 47% | 200%
C=C(C)[C@@H]1C[C@H](O)C(C)=C[C@H]1c1c(O)cc(-c2cccnc2OC)cc1O [Compound 35, (1′R,2′R,4′S)-4-(2-Methoxypyridin-3-yl)-5′-methyl-2′-(prop-1-en-2-yl)-1′,2′,3′,4′-tetrahydro-[1,1′-biphenyl]-2,4′,6-triol] | 38.0 ± 1.9 mA | >131.0 mA | 62% | 457%
C=C(C)[C@@H]1C[C@H](O)C(C)=C[C@H]1c1c(O)cc(-c2ccc3c(c2)OCO3)cc1O [Compound 41, (1′R,2′R,4′S)-4-(Benzo[d][1,3]dioxol-5-yl)-5′-methyl-2′-(prop-1-en-2-yl)-1′,2′,3′,4′-tetrahydro-[1,1′-biphenyl]-2,4′,6-triol] | 50.5 ± 0.7 mA | >131.0 mA | 91% | > 394%
C=C(C)[C@@H]1C[C@H](O)C(C)=C[C@H]1c1c(O)cc(-c2cccc3c2OCO3)cc1O [Compound 42, (1′R,2′R,4′S)-4-(Benzo[d][1,3]dioxol-4-yl)-5′-methyl-2′-(prop-1-en-2-yl)-1′,2′,3′,4′-tetrahydro-[1,1′-biphenyl]-2,4′,6-triol] |  | >131.0 mA |  | 457%
C=C(C)[C@@H]1C[C@H](O)C(C)=C[C@H]1c1c(O)cc(CCC)c(F)c1O [Compound 45, (1′R,2′R,4′S)-3-fluoro-5′-methyl-2′-(prop-1-en-2-yl)-4-propyl-1′,2′,3′,4′-tetrahydro-[1,1′-biphenyl]-2,4′,6-triol] | 35.5 +/− 0.5 mA |  | 58% | 
